Results reported in patent publication US20260102359A1, “COMBINATION TREATMENT OF DERMAL AND TRANSDERMAL FIBROTIC DISEASES, DISORDERS AND ASSOCIATED PAIN AND INFLAMMATION” (ERESINA, LLC, priority 2022, published 2026).
Where a name gives a salt, the structure may show the parent alone.

The molecules below were run on hDMFa myofibroblast cells.
For `CC(=O)O[C@@H]1CC[C@@]2(C)[C@@H](CC[C@]3(C)[C@@H]2C(=O)C=C2[C@@H]4[C@@H](C)[C@H](C)CC[C@]4(C)CC[C@]23C)[C@@]1(C)C(=O)O` [Cmpd 51, 3-acetyl-11-keto-β-Boswellic Acid], the “Compound Myofibroblast Cytotoxicity Activity” value was “+++++”.
`[H]/N=C(\N/C(=N/[H])NCCCCCCNC(=N)NC(=N)Nc1ccc(Cl)cc1)Nc1ccc(Cl)cc1` [Cmpd 249, Chlorhexidine HCl] was tested, and the “Compound Myofibroblast Cytotoxicity Activity” value was “+++++”.
In the case of beta-Alanine [Cmpd 174], the “Compound Myofibroblast Cytotoxicity Activity” value is reported as “++++”.
`N[C@@H](CCC(=O)N[C@@H](CS)C(=O)NCC(=O)O)C(=O)O` [Cmpd 585, L-Glutathione Reduced] was tested, and the “Compound Myofibroblast Cytotoxicity Activity” value was “++++”.
`CNCCCN1c2ccccc2CCc2ccccc21.Cl` [Cmpd 342, Desipramine hydrochloride] was tested, and the “Compound Myofibroblast Cytotoxicity Activity” value was “++++”.
`N[C@@H](Cc1cc(I)c(Oc2ccc(O)c(I)c2)c(I)c1)C(=O)O` [Cmpd 972, Triiodothyronine] was tested, and the “Compound Myofibroblast Cytotoxicity Activity” value was “++”.
`C[N+](C)(C)CCOC(N)=O.[Cl-]` [Cmpd 214, Carbamoylcholine chloride] was tested, and the “Compound Myofibroblast Cytotoxicity Activity” value was “++”.
In the case of `CO[C@@]1(NC(=O)Cc2cccs2)C(=O)N2C(C(=O)O)=C(COC(N)=O)CS[C@@H]21` [Cmpd 234, Cefoxitin (sodium salt)], the “Compound Myofibroblast Cytotoxicity Activity” value is reported as “+++++”.
In the case of `N[C@@H](CCC(=O)O)C(=O)[O-].[Na+]` [Cmpd 584, L-Glutamic acid monosodium salt], the “Compound Myofibroblast Cytotoxicity Activity” value is reported as “++”.
In the case of `CC1(C)CC(=O)CC(C)(C)N1` [Cmpd 967, Triacetonamine], the “Compound Myofibroblast Cytotoxicity Activity” value is reported as “++”.
`Oc1c(Cl)cc(Cl)c2cccnc12` [Cmpd 251, Chloroxine] was tested, and the “Compound Myofibroblast Cytotoxicity Activity” value was “++++”.
With `CCCCCCCCCCCCOS(=O)(=O)O` [Cmpd 871, Sodium dodecyl sulfate] the “Compound Myofibroblast Cytotoxicity Activity” value was “+++++”.
In the case of `COc1ccc([C@@H]2CC(=O)c3c(O)cc(O)cc3O2)cc1O` [Cmpd 503, Hesperitin], the “Compound Myofibroblast Cytotoxicity Activity” value is reported as “++”.
`C[C@H]1O[C@@H](O[C@H]2CC[C@@]3(C)[C@@H](CC[C@]4(C)[C@@H]3C=C[C@]35OC[C@@]6(CCC(C)(C)C[C@H]63)[C@@H](O)C[C@]54C)[C@]2(C)CO)[C@H](O)[C@@H](O[C@@H]2O[C@H](CO)[C@@H](O)[C@H](O)[C@H]2O)[C@H]1O` [Cmpd 846, Saikosaponin A] was tested, and the “Compound Myofibroblast Cytotoxicity Activity” value was “+++++”.
`NCc1ccc(S(N)(=O)=O)cc1` [Cmpd 626, Mafenide Acetate] was tested, and the “Compound Myofibroblast Cytotoxicity Activity” value was “++++”.
`CC1(C)Cc2c(-c3ccccc3)c(-c3ccc(Cl)cc3)c(CC(=O)O)n2C1` [Cmpd 588, Licofelone] was tested, and the “Compound Myofibroblast Cytotoxicity Activity” value was “+++”.
For `C=C1CC[C@H](O)C/C1=C/C=C1\CCC[C@]2(C)[C@@H]([C@H](C)CCCC(C)C)CC[C@@H]12` [Cmpd 1009, Vitamin D3], the “Compound Myofibroblast Cytotoxicity Activity” value was “+++”.
With `NC(=O)c1ccc(I)c([N+](=O)[O-])c1` [Cmpd 531, Iniparib (BSI-201)] the “Compound Myofibroblast Cytotoxicity Activity” value was “+++++”.
In the case of `COC(=O)C1=C(C)NC(C)=C(C(=O)OCC(C)C)C1c1ccccc1[N+](=O)[O-]` (centres unmarked) [Cmpd 717, Nisoldipine], the “Compound Myofibroblast Cytotoxicity Activity” value is reported as “+++”.
For `CC(C)(c1ccc(O)cc1)c1ccc(O)cc1` [Cmpd 186, Bisphenol A], the “Compound Myofibroblast Cytotoxicity Activity” value was “++”.
For `C[C@H](CCC(=O)O)[C@H]1CC[C@H]2[C@@H]3CC[C@@H]4C[C@H](O)CC[C@]4(C)[C@H]3C[C@H](O)[C@]12C` [Cmpd 339, Deoxycholic acid sodium salt], the “Compound Myofibroblast Cytotoxicity Activity” value was “+++++”.
In the case of `C#C[C@]1(O)CC[C@H]2[C@@H]3CCC4=CCCC[C@@H]4[C@H]3C(=C)C[C@@]21CC` [Cmpd 344, Desogestrel], the “Compound Myofibroblast Cytotoxicity Activity” value is reported as “+++”.
With `Oc1ncnc2[nH]ncc12` [Cmpd 37] the “Compound Myofibroblast Cytotoxicity Activity” value was “+”.
